Measured values from patent US9737073B2, “Herbicidal weed control from combinations of fluroxypyr and ALS inhibitors” (Dow AgroSciences LLC, priority 2014, dated 2017).

Columns and labels:
Type in all cases: in vivo
[1] = tested on: Commelina benghalensis (tropical spiderwort, COMBE); assay: Postemergence herbicidal weed control, fluroxypyr-meptyl and diclosulam, greenhouse trials (Table 1)
Procedure: (§1) Field trials were conducted using standard herbicide small plot research methodology. Plots varied from 3×3.3 meter (m) to 4.5×10 m (width×length) with 4 replicates per treatment. The crops used in the field trials were grown using normal cultural practices for land preparation, fertilization, seeding and maintenance to ensure good growth of the crop and the weeds.
(§2) All treatments in the field trials were applied using either pressurized air or carbon dioxide (CO2) backpack or bicycle sprayers calibrated to apply 100-187 L/ha spray volume. Flat Fan spray nozzles were used in all trials, with water as the diluent applied at 275-300 kilopascals (kPa). Weed sizes at application ranged from 10 to 40 cm tall. Commercially available products of fluroxypyr-meptyl (STARANE™, 180 and 333 g ae/L EC), diclosulam (SPIDER® 84WG), and thifensulfuron-methyl (HARMONY® 75WG) were mixed in water at appropriately formulated product rates to achieve the desired rates based on a unit area of application (hectare) to achieve the desired rates as shown. No adjuvants were tank-mixed with any treatments applied in the field trials. Treatments were rated at 14-26 days after application as compared to the untreated control plants. Visual weed control was scored on a scale of 0 to 100 percent where 0 corresponds to no injury and 100 corresponds to complete kill.
The treated plots and control plots were rated blind at various intervals after application. Ratings were reported on a Percent (%) Visual Control basis, where 0 corresponds to no visual effect/weed control and 100 corresponds to complete kill of the target weeds.
Colby's equation was used to determine the herbicidal effects expected from the mixtures (Colby, S. R. Calculation of the synergistic and antagonistic response of herbicide combinations. Weeds 196715, 20-22). A t-test (alpha=0.05) between Colby predictions and observed combinations was used to test for significant differences indicating synergy or antagonism. The results presented in the Tables were significant according to the described criteria.
The following equation was used to calculate the expected activity of mixtures containing two active ingredients, A and B: Expected=A+B−(A×B/100) • A=observed efficacy of active ingredient A at the same concentration as used in the mixture; • B=observed efficacy of active ingredient B at the same concentration as used in the mixture.

[2] = tested on: Chenopodium album (common lambsquarters, CHEAL); assay: Postemergence herbicidal weed control, fluroxypyr-meptyl and cloransulam-methyl, field trials (Table 2)
Procedure: (§3) Seeds of the desired test plant species were planted in a peat-based potting soil, Metro-Mix 360® in plastic pots with a surface area of 128 square centimeters (cm^2). Metro-Mix 360® consists of formulated Canadian sphagnum peat moss, coarse perlite, bark ash, a starter nutrient charge (with gypsum), a slow-release nitrogen and dolomitic limestone. The plants were grown for 7-19 days in a greenhouse with an approximate 14-hour (h) photoperiod which was maintained at about 29° C. during the day and 26° C. during the night. Nutrients and water were added on a regular basis and supplemental lighting was provided with overhead metal halide 1000-Watt lamps as necessary. The plants were treated with postemergence foliar applications when they reached the third to fourth true leaf stage. All treatments were applied using a randomized complete block trial design, with 4 replications per treatment.
(§4) Treatments consisted of the compounds as listed in Tables 1 to 4, each compound applied alone and in combination. Commercially formulated products of fluroxypyr-meptyl (STARANE™, 333 grams acid equivalent per liter (g ae/L) EC), diclosulam (SPIDER® 84WG), cloransulam-methyl (FIRSTRATE™ 84WG), chlorimuron-ethyl (CLASSIC® 25WG) and thifensulfuron-methyl (HARMONY® 50SG). Formulated amounts of fluroxypyr-meptyl, diclosulam, cloransulam-methyl, chlorimuron-ethyl and thifensulfuron-methyl were placed in 60 milliliter (mL) glass vials and dissolved in a volume of 30 or 60 mL of a water solution containing Agri-dex crop oil concentrate in a 1% volume per volume (v/v) ratio. Compound requirements are based upon either a 30- or a 60-mL application volume at a rate of 200 liters per hectare (L/ha). Spray solutions of the mixtures were prepared by adding the stock solutions to the appropriate amount of dilution solution to form either a 30- or a 60-mL spray solution with active ingredients in single and two-way combinations. Formulated compounds were applied to the plant material with an overhead Generation III Research Sprayer manufactured by DeVries Manufacturing in Hollandale, Minn., USA. The track sprayer was equipped with an 8003E nozzle calibrated to deliver 200 L/ha at a spray height of 18 inches (43 centimeters (cm)) above average plant canopy.
(§5) The treated plants and untreated control plants were placed in a greenhouse as described above and watered by sub-irrigation to prevent wash-off of the test compounds.
(§6) Treatments were rated at 7 to 21 days after application (DAA) as compared to the untreated control plants. Visual weed control was scored on a scale of 0 to 100 percent where 0 corresponds to no injury and 100 corresponds to complete kill.
as §1
as §2, with “Treatments were rated at 14-26 days after application as compared to the untreated control plants.” left out, “kill. […]” for “kill.”

[3] = tested on: Abutilon theophrasti (velvetleaf, ABUTH); assay: Postemergence herbicidal weed control, fluroxypyr-meptyl and chlorimuron-ethyl, field trials (Table 3)
Procedure: as §3, §4, §5, §6, §1
as §2, with “Visual weed control was scored on a scale of 0 to 100 percent where 0 corresponds to no injury and 100 corresponds to complete kill.” left out

[4] = tested on: Amaranthus rudis Sauer (common waterhemp, AMATA); assay: as above
Procedure: as §3, §4, §5, §6, §1
as §2, with “Visual weed control was scored on a scale of 0 to 100 percent where 0 corresponds to no injury and 100 corresponds to complete kill.” left out

Structure (SMILES): CCCCCCC(C)OC(=O)COc1nc(F)c(Cl)c(N)c1Cl (stereo not drawn) [Fluroxypyr-meptyl, fluroxypyr-methylheptyl ester]
- Fluroxypyr-meptyl Mean % weed control ([1]; 14DAA1, 200 g ae/ha): 27.5%
- Fluroxypyr-meptyl Mean % weed control ([1]; 26DAA1, 200 g ae/ha): 25.0%
- Fluroxypyr-meptyl Mean % weed control ([2]; 8DAA1, 25 g ae/ha): 33.3%
- Fluroxypyr-meptyl Mean % weed control ([2]; 14DAA1, 25 g ae/ha): 10.0%
- Fluroxypyr-meptyl Mean % weed control ([2]; 14DAA1, 100 g ae/ha): 33.3%
- Fluroxypyr-meptyl Mean % weed control ([2]; 21DAA1, 25 g ae/ha): 18.3%
- Fluroxypyr-meptyl Mean % weed control ([2]; 21DAA1, 50 g ae/ha): 18.3%
- Fluroxypyr-meptyl Mean % weed control ([2]; 21DAA1, 100 g ae/ha): 21.0%
- Fluroxypyr-meptyl Mean % weed control ([3]; 14DAA1, 50 g ae/ha): 67.0%
- Fluroxypyr-meptyl Mean % weed control ([3]; 14DAA1, 100 g ae/ha): 80.8%
- Fluroxypyr-meptyl Mean % weed control ([4]; 7DAA1, 25 g ae/ha): 25.0%
- Fluroxypyr-meptyl Mean % weed control ([4]; 14DAA1, 25 g ae/ha): 7.5%
